Where “and” joins values, the source holds several entries; their conditions need not be identical. Equal entries are not always repeated.
The molecules below were run against Nonstructural protein 3 (Zika virus, UniProt A0A024AXB9) (assay: Functional biochemical assay to identify treatments for viral infectious disease that targets Zika NS2B-NS3 protease. Utilizing a direct enzyme activity measurement method, reading the fluorescence intensity is used to characterize the relative potency of inhibitors as IC50.).
Nonstructural protein 3, sequence (A0A024AXB9 whole entry): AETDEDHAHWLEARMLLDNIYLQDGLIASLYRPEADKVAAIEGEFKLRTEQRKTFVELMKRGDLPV
Design: species or system PRVABC59

SMILES	IC50
O=C(Nc1ccc2nc[nH]c2c1)c1cc(F)cc2[nH]ncc12	3.3 µM
C=CC[C@H]1NCc2cc(NC(=O)c3cccc4c3CC(=O)N4)ccc21	1.15 µM
O=C(Nc1ccc2c(c1)CNC2)c1ccc2c(c1)CCC2	11.7 µM
O=C(Nc1ccc2c(c1)C(=O)OC2)c1cc(CC2CCNCC2)ccc1F	> 25 µM
Clc1cc([C@@H]2C[C@H]2c2cccc(C3CCNCC3)c2)c2cn[nH]c2c1	4.53 µM and 7.81 µM
Cc1nc(C2CC2)[nH]c1C(=O)Nc1cc(CCCN)ccn1	> 25 µM
CC(C)c1nccn1C[C@H]1CCCN1C(=O)Nc1ccc2c(c1)CNC2	> 25 µM
O=C1OCc2ccc(NC(=O)c3cccc4c3CNC4)cc21	> 25 µM
Cc1c(C(=O)Nc2cc(-c3cccnc3)ccn2)cc(C2CC2)n1C	5.84 µM and > 25 µM
NCc1ccccc1C(=O)Nc1ccc2c(c1)C(=O)OC2	> 25 µM
O=C1OCc2ccc(NC(=O)[C@H]3CNC4(CCCC4)C3)cc21	> 25 µM
O=C(Nc1ccc2c(c1)CNC2)c1nc(C(F)(F)F)cs1	> 25 µM
O=C(Nc1ccc2c(c1)CNC2)c1cc(Br)cc2[nH]c([C@H]3CCCO3)nc12	0.274 µM
O=C(Nc1ccc2c(c1)CNC2)c1cccc2c1OCCN2	8.24 µM
C[C@](N)(C(=O)Nc1ccc2c(c1)C(=O)OC2)c1cccs1	> 25 µM
CC1(C)C(=O)N[C@H]2CCCN(C(=O)Nc3ccc4c(c3)CNC4)[C@H]21	> 25 µM
O=C1C[C@H]2[C@H](CCCN2C(=O)Nc2ccc3c(c2)CNC3)N1	> 25 µM
O=C(Nc1ccc2c(c1)CNC2)N1CC[C@H](Oc2ccc(C3CC3)cn2)C1	> 25 µM
O=C(Nc1ccc2c(c1)CNC2)N1CCC[C@H]1c1nc2ncccc2[nH]1	> 25 µM

SMILES	IC50
CC1CCN(CC[C@H]2CCCN2C(=O)Nc2ccc3c(c2)CNC3)CC1	> 25 µM
O=C(Nc1ccc2c(c1)CNC2)N1CCC[C@@H]1COCc1ccccc1	> 25 µM
CNC(=O)c1cccc(C(=O)Nc2ccc3c(c2)CNC3)c1	0.87 µM
O=C(Nc1ccc2c(c1)CNC2)c1cccc(O)c1	3.94 µM
O=C(Nc1ccc2c(c1)C(=O)OC2)c1cccc(CC2CNC2)c1	> 25 µM
C=CC[C@H]1NCc2cc(NC(=O)c3cc(F)cc4[nH]ncc34)ccc21	0.289 µM
O=C(Nc1cc([C@H]2CCOC2)ccn1)c1ccc2ncsc2c1	> 25 µM
O=C1Cc2c(cc(F)cc2C(=O)Nc2ccc3c(c2)CNC3)N1	0.026 µM and 0.014 µM
O=C(Nc1ccc2[nH]c(=O)[nH]c2c1)c1cc(F)cc2[nH]ncc12	> 25 µM
CC1=CC[C@H](c2cccc(-c3nn[nH]n3)c2)Nc2cc(Cl)ccc21	> 25 µM
Cc1cc(C)n([C@H]2CCCN(C(=O)Nc3ccc4c(c3)CNC4)C2)n1	> 25 µM
O=C(Nc1ccc2c(c1)CNC2)c1ncc(Cc2ccccc2)s1	> 25 µM
O=C(Nc1ccc2c(c1)CNC2)N1CCC[C@H]1c1cc(C(F)(F)F)no1	> 25 µM
O=C1OCc2ccc(NC(=O)[C@H]3CNCc4[nH]ncc43)cc21	> 25 µM
O=C(Nc1ccc2c(c1)CNC2)c1cc(F)cc2c1CCC2	0.099 µM and 0.09 µM
NCc1cc(C=C2CC(C(=O)O)C2)cc(NC(=O)c2cc(Cl)cc(NC(=O)OCc3ccccc3)c2)c1 (configuration not stated)	9.31 µM
O=C(Nc1ccc2c(c1)CNC2)c1ccc(OC(F)(F)F)cc1	> 25 µM
NC[C@H]1CC[C@@H](NC(=O)c2cc(Cl)cc3[nH]ncc23)CC1	10.7 µM
CC1(C)C[C@H](C(=O)Nc2ccc3c(c2)C(=O)OC3)CCN1	> 25 µM

SMILES	IC50
O=C(Nc1ccc2c(c1)CNC2)c1cccc2c1OCO2	2.87 µM
Cc1nnc(SC[C@H]2CCCN2C(=O)Nc2ccc3c(c2)CNC3)s1	5.77 µM
O=C(Nc1ccc2c(c1)CNC2)c1cccc2nc(O)ccc12	0.204 µM
C#C[C@H](Nc1ccc2c(c1)CNC2)c1cccc2c1CCNC2=O	> 25 µM
NCCCc1ccnc(NC(=O)c2cc(C3CC3)[nH]n2)c1	> 25 µM
NCc1cc(CC(=O)O)cc([C@H]2C[C@@H]2c2cc(Cl)cc(NC(=O)OCc3ccccc3)c2)c1	> 25 µM
O=C(Nc1ccc2[nH]ncc2c1)c1cc(F)cc2[nH]ncc12	> 25 µM
O=C(Nc1ccc2c(c1)CNC2)c1nc(-c2ccccc2)cs1	> 25 µM
O=C(Nc1ccc2c(c1)CNC2)c1cccc2ncccc12	3.4 µM
NCCC1(C(=O)Nc2ccc3c(c2)C(=O)OC3)CCCC1	> 25 µM
O=C(Nc1ccc2c(c1)CNC2)c1ccc2ncccc2c1	> 25 µM
Clc1cccc([C@H](C#Cc2ccccc2)Nc2ccc3c(c2)CNC3)c1	5.26 µM
O=C1CCCc2cc(C(=O)Nc3ccc4c(c3)CNC4)ccc2N1	> 25 µM
CO[C@]1(C(=O)Nc2ccc3c(c2)C(=O)OC3)CCCNC1	> 25 µM
O=C1Cc2c(cc(Br)cc2C(=O)Nc2ccc3c(c2)C(=O)OC3)N1	> 25 µM
O=C1CN(C(=O)Nc2ccc3c(c2)CNC3)[C@H]2CCCC[C@H]2N1	> 25 µM
O=C(Nc1ccc2c(c1)CNC2)N1CCC[C@H]1Cc1cc2ccccc2o1	> 25 µM
CC(=O)Nc1cccc(C(=O)Nc2ccc3c(c2)CNC3)c1	0.863 µM

Other lines, results leading:

IC50	SMILES
9.55 µM	O=C(Nc1ccc2c(c1)CNC2)c1cc(Cl)cc2nn[nH]c12
2.01 µM	O=C(Nc1ccc2c(c1)CNC2)c1ccc2[nH]ncc2c1
0.046 µM and 0.043 µM	O=C(Nc1ccc2c(c1)CNC2)c1cccc2[nH]c(C(F)(F)F)cc12
0.047 µM and 0.042 µM	O=C(Nc1ccc2c(c1)CNC2)c1cc(Cl)cc2cn[nH]c12
0.1 µM and 0.076 µM	O=C(Nc1ccc2c(c1)CNC2)c1cc(Cl)cc2[nH]c(-c3ccnn3C3CC3)nc12
7.29 µM	CN1Cc2cc(NC(=O)c3cc(Cl)cc4[nH]ncc34)ccc2C1(C)C
> 25 µM	O=C(Cc1ccc2ncsc2c1)Nc1ccc2c(c1)CNC2
3.39 µM	CC(C)CCN1Cc2ccc(NC(=O)c3cc(Cl)cc4[nH]ncc34)cc2C1
> 25 µM	COc1ccc2[nH]cnc2c1S(=O)(=O)Nc1ccc2c(c1)CNC2
16 µM	O=C(Nc1ccc2c(c1)CNC2)c1ccc2sncc2c1
0.876 µM	O=C(Nc1ccc2c(c1)CNC2)c1cc(Cl)ccc1-n1cncn1
0.176 µM	O=C(Nc1ccc2c(c1)CNC2)c1cc(F)cc2[nH]cnc12
0.107 µM	Cn1cc2c(C(=O)Nc3ccc4c(c3)CNC4)cc(F)cc2n1
> 25 µM	CN1C(=O)Cc2cc(C(=O)Nc3ccc4c(c3)CNC4)ccc21
0.449 µM	C=CC[C@H]1NCc2cc(NC(=O)c3cc(Cl)cc4[nH]ncc34)ccc21
> 25 µM	O=C(Nc1ccc2c(c1)S(=O)(=O)NC2)c1cc(Cl)cc2[nH]ncc12
0.163 µM	CCc1ccc(-c2nc3c(C(=O)Nc4ccc5c(c4)CNC5)cc(Cl)cc3[nH]2)cc1
> 25 µM	O=C1NS(=O)(=O)c2ccc(NC(=O)c3cc(Cl)cc4[nH]ncc34)cc21
0.328 µM	CC(C)(C)c1nc2c(C(=O)Nc3ccc4c(c3)CNC4)cc(Br)cc2[nH]1

IC50	SMILES
16.4 µM	CC(C)(C)OC(=O)N1Cc2cc(NC(=O)c3cc(Cl)cc4[nH]ncc34)cc(Br)c2C1
7.05 µM	C#C[C@H](Nc1ccc2c(c1)CNC2)c1cccc2[nH]c(=O)[nH]c12
0.199 µM	CCOCC1(c2nc3c(C(=O)Nc4ccc5c(c4)CNC5)cc(Cl)cc3[nH]2)CC1
> 25 µM	O=C(Nc1ccc2c(c1)CNC2)c1nc(Cl)nc2[nH]ccc12
0.07 µM and 0.065 µM	O=C(Nc1ccc2c(c1)CNC2)c1cc(Cl)cc2cc[nH]c12
0.281 µM	O=C(Nc1ccc2c(c1)CNC2)c1cccc2[nH]ccc12
14.4 µM	CC(C)NC(=O)[C@H](Nc1ccc2c(c1)CNC2)c1cc(F)cc2[nH]ncc12
1.05 µM	O=C(Nc1ccc2c(c1)CNC2)c1cc(Cl)ccc1-n1cnnn1
> 25 µM	CN(C)C(=O)N1Cc2ccc(NC(=O)c3cc(Cl)cc4[nH]ncc34)cc2C1
3.12 µM	CC(C)(C)NC(=O)[C@H](Nc1ccc2c(c1)CNC2)c1cc(Cl)cc2[nH]ncc12
0.034 µM and 0.022 µM	Cn1c(=O)[nH]c2c(C(=O)Nc3ccc4c(c3)CNC4)cc(Br)cc21
0.08 µM and 0.029 µM and 0.061 µM	O=C(Nc1ccc2c(c1)CNC2)c1cc(Cl)cc2[nH]c(-c3cc(C4CC4)[nH]n3)nc12
7.26 µM	N#C[C@H](Nc1ccc2c(c1)CNC2)c1cccc2ncccc12
> 25 µM	CC(C)Nc1c(-c2cc(Cl)cc3[nH]ncc23)nc2ccc3c(n12)CNC3
0.144 µM	O=C(Nc1ccc2c(c1)CNC2)c1cc(Cl)cc2[nH]c(CCc3cccnc3)nc12
21 µM	O=C(Nc1ccc2c(c1)CNC2)c1cc(Cl)cc(C(F)(F)F)n1
> 25 µM	Cc1nc2ccc(C(=O)Nc3ccc4c(c3)CNC4)cc2s1
0.785 µM	COCc1cc(Cl)cc(C(=O)Nc2ccc3c(c2)CNC3)c1
0.28 µM	CN(C)C(=O)CCCc1nc2c(C(=O)Nc3ccc4c(c3)CNC4)cc(Cl)cc2[nH]1

IC50	SMILES
> 25 µM	O=C1Cc2ccc(NC(=O)c3cc(F)cc4[nH]ncc34)cc2N1
0.187 µM	O=C(Nc1ccc2c(c1)CNC2)c1cc(Cl)cc(N2CCCC2=O)c1
0.26 µM	COc1cc(Cl)cc(C(=O)Nc2ccc3c(c2)CNC3)c1
2.41 µM and 6.85 µM	O=C1Cc2cc(C(=O)Nc3ccc4c(c3)CNC4)ccc2N1
> 25 µM	CC(=O)N1Cc2ccc(NC(=O)c3cc(Cl)cc4[nH]ncc34)cc2C1
2.58 µM	COc1ncc(Cl)cc1C(=O)Nc1ccc2c(c1)CNC2
8.43 µM	O=C(Nc1nc(O)c2c(n1)CNC2)c1cc(Cl)cc2[nH]ncc12
0.372 µM and 3.47 µM	O=C(Nc1ccc2c(c1)CNC2)c1cc(Cl)cc2nn(-c3ccccc3)nc12
3.2 µM	CCC[C@H](C)N1Cc2ccc(NC(=O)c3cc(Cl)cc4[nH]ncc34)cc2C1
0.207 µM and 0.615 µM	O=C(Nc1ccc2c(c1)CNC2)c1cccc2cn[nH]c12
0.048 µM and 0.028 µM	O=C(Nc1cc2c(cc1Br)CNC2)c1cc(F)cc2[nH]ncc12
> 25 µM	C[C@](C#N)(Nc1ccc2c(c1)CNC2)c1cccc(Cl)c1
0.268 µM	C#Cc1cc(Cl)cc(C(=O)Nc2ccc3c(c2)CNC3)c1
0.113 µM	O=C(Nc1ccc2c(c1)CNC2)c1cc(Cl)cc2ccccc12
0.151 µM	O=C(Nc1ccc2c(c1)CNC2)c1cc(Cl)cc2c1NCCC2
1.35 µM	Clc1cc([C@H](C#CC2CC2)Nc2ccc3c(c2)CNC3)c2cn[nH]c2c1
0.05 µM and 0.027 µM	O=C(Nc1ccc2c(c1)CNC2)c1cc(Cl)cc2[nH]c(-c3cnc(C4CC4)o3)nc12
0.114 µM	O=C(Nc1ccc2c(c1)CNC2)c1cc(Cl)cc(N2CCCC2)c1

From ChEMBL document CHEMBL5604062, “ASAP - ZIKV NS2B-NS3 protease fluorescence dose response” (2024)
